Laboratory results taken from patent US8957074B2 (Novartis AG, priority 2010, dated 2015).
Read-outs that look alike come from different tables or passages of the source.

Columns and labels:
[1] = tested on: phosphorylation of pRb at the Ser780 site in JeKo-1 mantle cell lymphoma cells; assay: CDK4 cellular assay: ELISA of pRb phosphorylation at Ser780 in JeKo-1 cells; type: cell-based; details: Homo sapiens
CDK4/cyclin D1 = CDK4/cyclin D1 (Homo sapiens (Human), UniProt P11802); assay: CDK4/cyclin D1 enzymatic activity assay (TR-FRET, phosphorylation of pRb at Ser780); type: biochemical
Method in brief: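 Phosphorylation at pRb Ser780, detected by TR-FRET, gave IC50s and kinetics. Enzyme: baculovirus/Sf21-expressed human CDK4/cyclin D1. ATP at 3 μM initiated the reaction; EDTA (pH 8.0) stopped it after 60 min at 22° C.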

CDK1/cyclin B = CDK1/cyclin B (Homo sapiens (Human), UniProt P06493); assay: CDK1/cyclin B enzymatic activity assay (IMAP-FP); type: biochemical; details: 100 nM Tamra Histone-H1 peptide, 20 μM ATP, 120 min at room temperature, read-out: Biochemical CDK1 enzyme IC50
Description: CDK1/Cyclin B Enzymatic Activity Assay
A 384-well microtiter IMAP-FP™ (Molecular Devices Trade Mark Technology) endpoint assay was used for CDK1/cyclin B kinase activity measurements. The same assay was used for IC50 determination of small molecule inhibitors.

[2] = JeKo-1 cells, p-pRb % inhibition adjusted with total pRb levels, read-out: Normalized cellular ppRb inhibition IC50
[3] = JeKo-1 cells, p-pRb Ser780 ELISA, non-normalized, read-out: Cellular ppRb inhibition IC50
[4] = 0.3 nM CDK4/cyclin D1, 150 nM biotin-pRb (773-924), 3 μM ATP, 60 min at 22° C., read-out: Biochemical CDK4 enzyme IC50
[5] = JeKo-1, JeKo-1 cells, p-pRb % inhibition adjusted with total pRb levels, read-out: Normalized cellular ppRb inhibition IC50
[6] = JeKo-1, JeKo-1 cells, p-pRb Ser780 ELISA, non-normalized, read-out: Cellular ppRb inhibition IC50
[7] = JeKo-1, read-out: Cellular ppRb inhibition IC50
[8] = JeKo-1, read-out: Normalized cellular ppRb inhibition IC50

Sequence of CDK4/cyclin D1 (P11802 whole entry): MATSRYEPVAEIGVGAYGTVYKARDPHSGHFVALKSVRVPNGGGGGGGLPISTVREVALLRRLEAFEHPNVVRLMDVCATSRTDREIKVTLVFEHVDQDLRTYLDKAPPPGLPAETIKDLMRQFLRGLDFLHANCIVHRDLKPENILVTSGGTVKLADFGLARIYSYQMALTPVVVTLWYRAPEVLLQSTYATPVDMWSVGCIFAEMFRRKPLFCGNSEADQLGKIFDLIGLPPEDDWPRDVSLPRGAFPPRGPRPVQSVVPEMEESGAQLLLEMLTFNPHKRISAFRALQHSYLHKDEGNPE
Sequence of CDK4/cyclin D1 (P24385 whole entry partner): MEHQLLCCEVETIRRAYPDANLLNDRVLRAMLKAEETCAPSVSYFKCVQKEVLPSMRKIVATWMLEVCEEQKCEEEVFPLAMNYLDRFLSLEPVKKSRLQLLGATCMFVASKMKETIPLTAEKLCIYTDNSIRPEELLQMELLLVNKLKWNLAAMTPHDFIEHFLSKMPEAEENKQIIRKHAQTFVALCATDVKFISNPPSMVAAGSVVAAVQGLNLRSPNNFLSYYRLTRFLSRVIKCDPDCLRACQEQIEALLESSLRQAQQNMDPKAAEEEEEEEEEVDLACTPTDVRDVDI
Sequence of CDK1/cyclin B (P06493 whole entry, species assumed): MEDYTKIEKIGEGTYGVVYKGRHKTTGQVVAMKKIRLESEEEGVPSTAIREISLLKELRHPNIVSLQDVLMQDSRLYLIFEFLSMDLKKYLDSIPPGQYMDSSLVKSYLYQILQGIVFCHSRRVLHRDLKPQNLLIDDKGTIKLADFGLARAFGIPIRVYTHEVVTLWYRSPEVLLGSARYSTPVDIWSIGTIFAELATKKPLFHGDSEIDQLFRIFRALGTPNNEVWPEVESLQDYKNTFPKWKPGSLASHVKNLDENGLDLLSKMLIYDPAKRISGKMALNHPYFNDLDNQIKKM
Sequence of CDK1/cyclin B (P14635 whole entry partner, species assumed): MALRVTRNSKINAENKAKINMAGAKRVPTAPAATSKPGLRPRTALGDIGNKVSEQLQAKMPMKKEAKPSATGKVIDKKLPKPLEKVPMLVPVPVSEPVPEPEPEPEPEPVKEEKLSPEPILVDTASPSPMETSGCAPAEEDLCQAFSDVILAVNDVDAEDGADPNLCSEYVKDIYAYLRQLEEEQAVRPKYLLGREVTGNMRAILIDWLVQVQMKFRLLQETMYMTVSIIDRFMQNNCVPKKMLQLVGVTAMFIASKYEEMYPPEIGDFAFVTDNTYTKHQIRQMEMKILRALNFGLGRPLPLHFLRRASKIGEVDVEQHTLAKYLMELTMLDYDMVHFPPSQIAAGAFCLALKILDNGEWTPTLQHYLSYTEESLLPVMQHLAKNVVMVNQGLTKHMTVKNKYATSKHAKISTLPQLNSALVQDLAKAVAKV

CSCC[C@@H](N)C(=O)N1C2CCC1CN(C(=O)c1ccc(Nc3ncc4cc(C(=O)N(C)C)n(C5CCCC5)c4n3)nc1)C2 [Example 59, 2-{5-[8-((R)-2-Amino-4-methylsulfanyl-butyryl)-3,8-diaza-bicyclo[3.2.1]octane-3-carbonyl]-pyridin-2-ylamino}-7-cyclopentyl-7H-pyrrolo[2,3-d]pyrimidine-6-carboxylic acid dimethylamide]
IC50 [1, 2]: > 10000 nM | IC50 [1, 3]: 2500 nM | IC50 (CDK4/cyclin D1; [4]): 8 nM | IC50 (CDK1/cyclin B; […] CDK1/cyclin B): > 15000 nM

CN(C)C(=O)c1cc2cnc(Nc3ccc(N4C[C@H]5CC[C@@H](CC4=O)N5)cn3)nc2n1-c1ccccc1 [Example 130, 2-[5-((1R,6S)-4-oxo-3,9-diaza-bicyclo[4.2.1]non-3-yl)-pyridin-2-ylamino]-7-phenyl-7H-pyrrolo[2,3-d]pyrimidine-6-carboxylic acid dimethylamide]
IC50 [1, 5]: 22 to 45 nM | IC50 [1, 6]: 19 to 26 nM | IC50 (CDK4/cyclin D1; [4]): 9 nM | IC50 (CDK1/cyclin B; […] CDK1/cyclin B): > 15000 nM

CN(C)C(=O)c1cc2cnc(Nc3ccc(C(=O)N4[C@@H]5CC[C@H]4C[C@@H](O)C5)cn3)nc2n1C1CCCC1 [Example 44, 7-Cyclopentyl-2-[5-((1S,3R,5R)-3-hydroxy-8-aza-bicyclo[3.2.1]octane-8-carbonyl)-pyridin-2-ylamino]-7H-pyrrolo[2,3-d]pyrimidine-6-carboxylic acid dimethylamide]
IC50 [1, 7]: 720 to 1490 nM | IC50 [1, 8]: 778 nM | IC50 (CDK4/cyclin D1; [4]): 177 to 351 nM | IC50 (CDK1/cyclin B; […] CDK1/cyclin B): > 15000 nM

CN(C)C(=O)c1cc2cnc(Nc3ccc(C(=O)N4CC5CCC(C4)N5C)cn3)nc2n1C1CCCC1 [Example 45, 7-cyclopentyl-2-[5-(8-methyl-3,8-diaza-bicyclo[3.2.1]octane-3-carbonyl)-pyridin-2-ylamino]-7H-pyrrolo[2,3-d]pyrimidine-6-carboxylic acid dimethylamide]
IC50 [1, 5]: 64 nM | IC50 [1, 6]: 64 nM | IC50 (CDK4/cyclin D1; [4]): 14 to 24 nM | IC50 (CDK1/cyclin B; […] CDK1/cyclin B): 12800 nM

CN(C)C(=O)c1cc2cnc(Nc3ccc(N4C[C@H]5CNC[C@H]5CC4=O)cn3)nc2n1C1CCCCCC1 (stereo in doubt) [Example 88, 7-cycloheptyl-N,N-dimethyl-2-(5-(cis-6-oxotetrahydro-1H-pyrrolo[3,4-c]pyridin-5(6H, 7H, 7a H)-yl)pyridin-2-ylamino)-7H-pyrrolo[2,3-d]pyrimidine-6-carboxamide]
IC50 [1, 5]: 11 nM | IC50 [1, 6]: 7 nM | IC50 (CDK4/cyclin D1; [4]): 5 nM | IC50 (CDK1/cyclin B; […] CDK1/cyclin B): 2510 nM

CN(C)C(=O)c1cc2cnc(Nc3ccc(N4CC5CNCC5C4=O)cn3)nc2n1C1CCCCCC1 (stereo not shown) [Example 81, 7-Cycloheptyl-2-[5-(1-oxo-hexahydro-pyrrolo[3,4-c]pyrrol-2-yl)-pyridin-2-ylamino]-7H-pyrrolo[2,3-d]pyrimidine-6-carboxylic acid dimethylamide]
IC50 [1, 7]: 3 nM | IC50 [1, 8]: 4 nM | IC50 (CDK4/cyclin D1): < 5 nM | IC50 (CDK1/cyclin B; 0.25 nM CDK1/cyclin B): 3810 nM

CN(C)C(=O)c1cc2cnc(Nc3ccc(N4CC5CC4CN5)cn3)nc2n1C1CCCC1 (stereo not shown) [Example 111, 7-Cyclopentyl-2-[5-(2,5-diaza-bicyclo[2.2.1]hept-2-yl)-pyridin-2-ylamino]-7H-pyrrolo[2,3-d]pyrimidine-6-carboxylic acid dimethylamide]
IC50 [1, 2]: 452 nM | IC50 [1, 3]: 371 nM | IC50 (CDK4/cyclin D1; [4]): 41 nM | IC50 (CDK1/cyclin B; […] CDK1/cyclin B): 9170 nM

CN(C)C(=O)c1cc2cnc(Nc3ccc(N4CC5CC5(N)C4)cn3)nc2n1C1CCCC1 (stereo not shown) [Example 78, 2-[5-(1-Amino-3-aza-bicyclo[3.1.0]hex-3-yl)-pyridin-2-ylamino]-7-cyclopentyl-7H-pyrrolo[2,3-d]pyrimidine-6-carboxylic acid dimethylamide]
IC50 [1, 7]: 59 nM | IC50 (CDK4/cyclin D1; [4]): 76 nM | IC50 (CDK1/cyclin B; 0.25 nM CDK1/cyclin B): > 15000 nM

CN(C)C(=O)c1cc2cnc(Nc3ccc(N4C[C@]5(CCCNC5)OC4=O)cn3)nc2n1C1CCCC1 [Example 110, 7-Cyclopentyl-2-[5-((R)-2-oxo-1-oxa-3,7-diaza-spiro[4.5]dec-3-yl)-pyridin-2-ylamino]-7H-pyrrolo[2,3-d]pyrimidine-6-carboxylic acid dimethylamide]
IC50 [1, 2]: 62 nM | IC50 [1, 3]: 41 nM | IC50 (CDK4/cyclin D1; [4]): 8 nM | IC50 (CDK1/cyclin B; […] CDK1/cyclin B): > 15000 nM

CN(C)C(=O)c1cc2cnc(Nc3ccc(N4C[C@H]5CC[C@@H](CC4=O)N5)cn3)nc2n1C1CCCCC1 [Example 133, 7-Cyclohexyl-2-[5-((1R,6S)-4-oxo-3,9-diaza-bicyclo[4.2.1]non-3-yl)-pyridin-2-ylamino]-7H-pyrrolo[2,3-d]pyrimidine-6-carboxylic acid dimethylamide]
IC50 [1, 5]: 7 nM | IC50 [1, 6]: 5 nM | IC50 (CDK4/cyclin D1; [4]): < 5 nM | IC50 (CDK1/cyclin B; […] CDK1/cyclin B): 13300 nM

CN(C)C(=O)c1cc2cnc(Nc3ccc(N4CCN5CCC[C@H]5C4=O)cn3)nc2n1C1CCCC1 [Example 146]
IC50 [1, 5]: 2900 nM | IC50 [1, 6]: 2700 nM | IC50 (CDK4/cyclin D1; [4]): 619 nM | IC50 (CDK1/cyclin B; […] CDK1/cyclin B): > 15000 nM

CN(C)C(=O)c1cc2cnc(Nc3ccc(C(=O)N4[C@@H]5CNC[C@H]4COC5)cn3)nc2n1C1CCCC1 [Example 40, 2-(5-((1R,5S)-3-oxa-7,9-diazabicyclo[3.3.1]nonane-9-carbonyl)pyridin-2-ylamino)-7-cyclopentyl-N,N-dimethyl-7H-pyrrolo[2,3-d]pyrimidine-6-carboxamide]
IC50 [1, 2]: 51 to 222 nM | IC50 [1, 3]: 40 to 99 nM | IC50 (CDK4/cyclin D1; [4]): 36 to 52 nM | IC50 (CDK1/cyclin B; […] CDK1/cyclin B): > 15000 nM

CN(C)C(=O)c1cc2cnc(Nc3ccc(N4C(=O)CN5CCC4CC5)cn3)nc2n1C1CCCCCC1 [Example 97, 7-cycloheptyl-N,N-dimethyl-2-(5-(3-oxo-1,4-diazabicyclo[3.2.2]nonan-4-yl)pyridin-2-ylamino)-7H-pyrrolo[2,3-d]pyrimidine-6-carboxamide]
IC50 [1, 7]: 66 nM | IC50 [1, 8]: 145 nM | IC50 (CDK4/cyclin D1; [4]): 51 nM | IC50 (CDK1/cyclin B; 0.25 nM CDK1/cyclin B): > 15000 nM

CN(C)C(=O)c1cc2cnc(Nc3ccc(C(=O)N4CC5(CNC5)C4)cn3)nc2n1C1CCCC1 [Example 41, 2-(5-(2,6-diazaspiro[3.3]heptane-2-carbonyl)pyridin-2-ylamino)-7-cyclopentyl-N,N-dimethyl-7H-pyrrolo[2,3-d]pyrimidine-6-carboxamide]
IC50 [1, 2]: 132 to 415 nM | IC50 [1, 3]: 112 to 228 nM | IC50 (CDK4/cyclin D1; [4]): 15 to 17 nM | IC50 (CDK1/cyclin B; […] CDK1/cyclin B): > 15000 nM

CN1CC2(C)CN(C(=O)c3ccc(Nc4ncc5cc(C(=O)N(C)C)n(C6CCCC6)c5n4)nc3)CC(C)(C1)C2O (stereo not shown) [Example 39, 7-Cyclopentyl-2-(5-(9-hydroxy-1,5,7-trimethyl-3,7-diazabicyclo[3.3.1]nonane-3-carbonyl)pyridin-2-ylamino)-N,N-dimethyl-7H-pyrrolo[2,3-d]pyrimidine-6-carboxamide]
IC50 [1, 2]: 136 nM | IC50 [1, 3]: 79 nM | IC50 (CDK4/cyclin D1; [4]): 77 nM | IC50 (CDK1/cyclin B; […] CDK1/cyclin B): > 15000 nM

CN(C)C(=O)c1cc2cnc(Nc3ccc(C(=O)N4CC5CCC(C4)N5)cn3)nc2n1[C@H]1CC[C@H](C(C)(C)C)CC1 [Example 37, 7-(4-tert-Butyl-cyclohexyl)-2-[5-(3,8-diaza-bicyclo[3.2.1]octane-3-carbonyl)-pyridin-2-ylamino]-7H-pyrrolo[2,3-d]pyrimidine-6-carboxylic acid dimethylamide]
IC50 [1, 5]: 288 to 438 nM | IC50 [1, 6]: 121 to 301 nM | IC50 (CDK4/cyclin D1): 5 to 6 nM | IC50 (CDK1/cyclin B; […] CDK1/cyclin B): > 15000 nM

CN(C)C(=O)c1cc2cnc(Nc3ccc(N4CC5(CCCNCC5)OC4=O)cn3)nc2n1C1CCCC1 (stereo not shown) [Example 103, 7-cyclopentyl-N,N-dimethyl-2-(5-(2-oxo-1-oxa-3,8-diazaspiro[4.6]undecan-3-yl)pyridin-2-ylamino)-7H-pyrrolo[2,3-d]pyrimidine-6-carboxamide]
IC50 [1, 2]: 64 to 169 nM | IC50 [1, 3]: 24 to 72 nM | IC50 (CDK4/cyclin D1; [4]): 17 nM | IC50 (CDK1/cyclin B; […] CDK1/cyclin B): > 15000 nM

CN(C)C(=O)c1cc2cnc(Nc3ccc(C(=O)N4CC5CCC(C4)N5)cn3)nc2n1C1CCCCCC1 [Example 4, 2-(5-(3,8-diazabicyclo[3.2.1]octane-3-carbonyl)pyridin-2-ylamino)-7-cycloheptyl-N,N-dimethyl-7H-pyrrolo[2,3-d]pyrimidine-6-carboxamide]
IC50 [1, 5]: 10 nM | IC50 [1, 6]: 9 nM | IC50 (CDK4/cyclin D1; [4]): 4 nM | IC50 (CDK1/cyclin B; […] CDK1/cyclin B): 7060 nM

CN(C)C(=O)c1cc2cnc(Nc3ccc(C(=O)N4CCC5(CC4)CNC5)cn3)nc2n1C1CCCCCC1 [Example 5, 2-(5-(2,7-diazaspiro[3.5]nonane-7-carbonyl)pyridin-2-ylamino)-7-cycloheptyl-N,N-dimethyl-7H-pyrrolo[2,3-d]pyrimidine-6-carboxamide]
IC50 [1, 2]: 117 nM | IC50 [1, 3]: 115 nM | IC50 (CDK4/cyclin D1; [4]): 8 to 16 nM | IC50 (CDK1/cyclin B; […] CDK1/cyclin B): > 15000 nM

CN(C)C(=O)c1cc2cnc(Nc3ccc(C(=O)N4C[C@H]5CNC[C@@H](C4)C5O)cn3)nc2n1C1CCCCCC1 (stereo partly drawn) [Example 2, 7-cycloheptyl-2-(5-((1R,5S)-9-hydroxy-3,7-diazabicyclo[3.3.1]nonane-3-carbonyl)pyridin-2-ylamino)-N,N-dimethyl-7H-pyrrolo[2,3-d]pyrimidine-6-carboxamide]
IC50 [1, 5]: 84 nM | IC50 [1, 6]: 66 nM | IC50 (CDK4/cyclin D1; [4]): 5 nM | IC50 (CDK1/cyclin B; […] CDK1/cyclin B): > 15000 nM
